In patent US20020002294A1, “Estrogenic compounds as antiangiogenic agents” (priority 1997, published 2002):

Assays:
tubulin [1] = test: inhibition of tubulin polymerization in vitro (turbidity at 350 nm); type: biochemical; settings: read-out: IC50 (concentration required to inhibit tubulin polymerization by 50%); mean ± S.D.; method of Example 1
Procedure: Anti-mitotic activity can be evaluated by testing the ability of an estradiol derivative to inhibit tubulin polymerization and microtubule assembly in vitro. Microtubule assembly is followed in a Gilford recording spectrophotometer (model 250 or 2400S) equipped with electronic temperature controllers. A reaction mixture (all concentrations refer to a final reaction volume of […]) contains 1.0 M monosodium glutamate (ph 6.6), 1. omg/ml (10 μM) tubulin, 1.0 mM MgCl2, 4% (v/v) dimethylsulfoxide and 20-75μM of a composition to be tested. The 0.24 ml reaction mixtures are incubated for 15 min. at 37° C. and then chilled on ice. After addition of 10p1 2.5mM GTP, the reaction mixture is transferred to a cuvette at 0° C., and a baseline established. At time zero, the temperature controller of the spectrophotometer is set at 37° C. Microtubule assembly is evaluated by increased turbity at 350 nm.
A. Each reaction mixture (all concentrations refer to the final reaction volume of 0.25 ml) contained 1.0 M monosodium glutamate (pH 6.6), 1.0 mg/ml (10 μM) tubulin, 1.0 mM MgCl2, 4% (v/v) dimethylsulfoxide, and either 0 (curve 1), 20μM (curve 2), 40 μM (curve 3), or 75 μM (curve 4) 2-methoxyestradiol. The 0.24 ml reaction mixtures were incubated for 15 min. at 37° C and chilled on ice. After addition of 10 μl of 2.5 mM GTP the reaction mixtures were transferred to cuvettes held at 0° C., and baselines were established. At time zero the temperature controller was set at 37° C. At the times indicated by the vertical dashed lines the temperature controller was set at the indicated temperatures.
B. Each reaction mixture contained 0.8 M monosodium glutamate (pH 6.6), 1.2 mg/ml (12 μM) tubulin, 4% (v/v) dimethylsulfoxide, and either 0 (curve 1), 1.0 FM (curve 2), 2.0 ,M (curve 3), 3.0 μM (curve 4), or 4.0 μM (curve 5) 2-methoxyestradiol. The 0.24 ml reaction mixtures were incubated for 15 min. at 26° C. and chilled on ice. After addition of 10μl of 10 mM GTP the reaction mixtures were transferred to cuvettes held at 0° C., and baselines were established. At time zero the temperature controller was set at 26° C. At the time indicated by vertical dashed line the temperature controller was set at 0° C.
The method is given in Example 1.
S.D., standard deviation.

[2] = test system: Ovarian cell lines (especially OVCAR-3); test: Human Tumor Cell Panel Assay in vitro, ovarian panel; type: cell-based; set-up: key: Most sensitive cell panes are marked with ✓
From the text: (§1) The tubulin activities, breast cancer cell line activities, and the cell panels most sensitive to selected analogs are shown in Tables 3 and 4.

Melanoma cell lines = test: Human Tumor Cell Panel Assay in vitro, melanoma panel; type: cell-based; set-up: key: Most sensitive cell panes are marked with ✓
From the text: as §1

Renal cell lines = test: Human Tumor Cell Panel Assay in vitro, renal panel; type: cell-based; set-up: key: Most sensitive cell panes are marked with ✓
From the text: as §1

[3] = test system: MDA-MB-435 estrogen receptor-negative human breast carcinoma cells; test: In Vivo Tumor Growth Inhibition; set-up: species or system SCID mice
Procedure: To determine the antitumor activity of 2-ME and derivatives, SCID mice were s.c. inoculated with 10^6 MDA-MB-435 estrogen receptor-negative human breast carcinoma cells. Treatment was initiated on day 12 when tumor volumes reached 75-100 mm3 in volume. Drugs were suspended in 0.5 g/100 ml of carboxymethylcellulose with sterile glass beads, vortexed for 5 minutes, and administered p.o. in a volume of 0.1 ml. Control mice received 0.1 ml of carboxymethylcellulose p.o. Serial caliper measurements of perpendicular diameters were used to calculate tumor volume using the following: (shortest diameter)^2×(longest diameter)×0.52. T/C was calculated as the volume of treated tumors over the volume of control tumors. A smaller number indicates a greater inhibition of tumor growth.

tubulin [4] = test: tubulin activities of 2-ME analogs (Table 3); type: biochemical
[5] = test system: 8 human breast cancer cell lines; test: human tumor cell panel assay in vitro, breast panel; type: cell-based; set-up: key to Most Sensitive Cell Lines in Human Tumor Cell Panel Assay: Breast: Most sensitive cell panes are marked with ✓; settings: for Most Sensitive Cell Lines in Human Tumor Cell Panel Assay: Breast: 8 cell lines, only MCF-7 and T-47D express estrogen and progesterone receptors; for IC50: Homo sapiens, read-out: Tumor Panel: Average log IC50(Molar) against 8 human breast cancer cell lines (converted); for IC50 / Tumor Panel: Average log IC50(Molar) against 8 human breast cancer cell lines: cell panel assay in vitro, two values per cell separated by /
From the text: as §1

CNS cell lines = test: Human Tumor Cell Panel Assay in vitro, CNS panel; type: cell-based; set-up: key: Most sensitive cell panes are marked with ✓
From the text: as §1

[6] = test system: corneal neovascularization; test: Mouse Corneal Micropocket Assay; type: in vivo, mice; settings: daily oral, 5 days
Procedure: Five- to 7-week-old SCID female mice were obtained from Massachusetts General Hospital (Boston, Mass.), Immunocompetent 7-9-week-old female C57BL/6 mice were obtained from ARCH Technical Services, Children's Hospital (Boston, Mass.). All animal studies were conducted according to protocols approved by the Animal Ethics Committee of Children's Hospital. Animals were anesthetized in a methoxyflurane (Pittman-Moore, Mundelein, Ill.) chamber prior to all procedures and were observed until fully recovered. Animals were sacrificed by a lethal dose of methoxyflurane.
Mouse Corneal Micropocket Assay To study the effect of microtubule inhibitors on angiogenesis in vivo, a model of angiogenesis in the mouse cornea was used in […] mice as described previously (Kenyon, B. B., Voest, E. E., Chen, C. C., Folkman, J., and D'Amato, R. J. A model of angiogenesis in the mouse cornea. Invest. Ophthalmol. & Visual Sci., 76: 1625-1632, 1996). In brief, after animals were anesthetized, corneal micropockets were created in both eyes with a modified von Graefe cataract knife. Into each pocket, a 0.4 mm ×0.4 mm×0.2 mm sucrose aluminum sulfate (Bukh Meditee, Copenhagen, Denmark) pellet coated with hydron polymer type NCC (IHN Sciences, New Brunswick, N.J.) containing 80 ng of bFGF or 160 ng of human recombinant […] (gift from Reprogenesis, Cambridge, Mass.) was implanted 1.0-1.2 mm from the limbal vessels (bFGF experiments) or 0.5-0.7 mm from the limbus (VEGF experiments). Erythromycin ointment (E. Fougera, Melville, N.Y.) was applied to each operated eye. The sucralfate acts to stabilize the growth factor and to slow its release from the hydron. Before testing each drug in this assay, we found the maximal dose that could be administered daily for 5 consecutive days without producing signs of toxicity (i.e., no hair loss, diarrhea, infection, lethargy, or weight loss). The treated groups received daily oral administration for 5 consecutive days of the stated dosage of 2-ME or a derivative thereof suspended in 0.5 g/100 ml of carboxymethylcellulose.
Treatment was started on the day of pellet implantation. […] For this purpose, the eyes of the mice were examined by slit-lamp biomicroscopy. Area of corneal neovascularization was calculated using a modified formula for a half-ellipse: Area (mm^2)=[π×clock hours×length (mm)×0.2 mm]. This formula provides the most accurate approximation of the area of neovascularization that grows toward the pellet. (Kenyon, B. B., Voest, E. E., Chen, C. C., Folkman, J., and D'Amato, R. J. A model of angiogenesis in the mouse cornea. Invest. Ophthalmol. & Visual Sci., 76: 1625-1632, 1996).

[7] = 150 mg/kg p.o., duration not stated

Row | SMILES | IC50 (tubulin [1]) [µM] | Most Sensitive Cell Lines in Human Tumor Cell Panel Assay: Ovarian [2] | IC50 (tubulin [4]) [µM] | Most Sensitive Cell Lines in Human Tumor Cell Panel Assay: Breast [5] | Most Sensitive Cell Lines in Human Tumor Cell Panel Assay: CNS (CNS cell lines) | further results
1 | CC12CCC3c4cc(Br)c(O)cc4CCC3C1CCC2O (stereo not drawn) [2-Bromoestradiol] | 4.5 ± 0.6 | – | – | – | – | –
2 | CC12CCC3c4cc(F)c(O)cc4CCC3C1CCC2O (stereo not drawn) [2-Fluoroestradiol] | 27 ± 6 | – | – | – | – | –
3 | C#CC1(O)CCC2C3CCc4cc(O)c(OC)cc4C3CCC21C (stereo not drawn) [2-Methoxy-17-ethynylestradiol] | > 40 | – | – | – | – | –
4 | COc1cc2c(cc1OC)C1CCC3(C)C(O)CCC3C1CC2 (stereo not drawn) [2-Methoxyestradiol-3-0-methyl ether] | > 40 | – | – | – | – | –
5 | COc1cc2c(cc1O)CCC1C2CCC2(C)C(O)C(O)CC12 (stereo not drawn) [2-Methoxyestriol] | > 40 | – | – | – | – | –
6 | COc1ccc2c(c1OC)CCC1C2CCC2(C)C(O)CCC12 (stereo not drawn) [4-Methoxyestradiol-3-0-methyl ether] | > 40 | – | – | – | – | –
7 | COc1c(O)ccc2c1CCC1C2CCC2(C)C(O)CCC12 (stereo not drawn) [4-Methoxyestradiol] | > 40 | – | – | – | – | –
8 | COc1ccc(CCc2cc(OC)c(OC)c(OC)c2)cc1O [Dihydrocombretastatin A-4] | 0.63 ± 0.03 | – | – | – | – | –
9 | COc1ccc2c(c1)CCC1C2CCC2(C)C(O)CCC12 (stereo not drawn) [Estradiol-3-0-methyl ether] | > 40 | – | – | – | – | –
10 | C[C@]12CC[C@@H]3c4ccc(O)cc4CC[C@H]3[C@@H]1C[C@@H](O)[C@@H]2O [Estriol] | > 40 | – | – | – | – | –
11 | CC=Cc1cc2c(cc1O)CCC1C2CCC2(C)C(O)CCC12 (stereo not drawn) [NSC 667047] | – | ✓ | 1.2 ± 0.1 | ✓ | ✓ | Most Sensitive Cell Lines in Human Tumor Cell Panel Assay: Melanoma (Melanoma cell lines): ✓; Most Sensitive Cell Lines in Human Tumor Cell Panel Assay: Renal (Renal cell lines): ✓; T/C (volume of treated tumors over volume of control tumors) ([3]; 29 days at 75 mg/kg p.o.): 0.40; IC50 [5]: 0.1 µM; Tumor Panel: Average log IC50(Molar) against 8 human breast cancer cell lines [5]: −6.9 log Molar
12 | C=Cc1cc2c(cc1O)CCC1C2CCC2(C)C(O)CCC12 (stereo not drawn) [NSC 667049] | – | ✓ | 5.2 ± 1 | ✓ | ✓ | Most Sensitive Cell Lines in Human Tumor Cell Panel Assay: Melanoma (Melanoma cell lines): ✓; Most Sensitive Cell Lines in Human Tumor Cell Panel Assay: Renal (Renal cell lines): ✓; IC50 [5]: 2.51 µM
13 | CCOc1cc2c(cc1O)CCC1C2CCC2(C)C(O)CCC12 (stereo not drawn) [NSC 671043] | – | ✓ | – | ✓ | ✓ | T/C (volume of treated tumors over volume of control tumors) [3, 7]: 0.9; IC50 [5]: 0.0316 µM; Tumor Panel: Average log IC50(Molar) against 8 human breast cancer cell lines [5]: −7.7 log Molar
14 | CC(=O)Nc1cc2c(cc1O)CCC1C2CCC2(C)C(O)CCC12 (stereo not drawn) [NSC 673651] | – | – | – | – | – | Tubulin IC50 (tubulin [4]): weak; IC50 [5]: 30.9 µM
15 | CC12CCC3c4cc(OCC(F)(F)F)c(O)cc4CCC3C1CCC2O (stereo not drawn) [NSC 678473] | – | – | 1.7 | – | – | IC50 [5]: 0.794 µM; Tumor Panel: Average log IC50(Molar) against 8 human breast cancer cell lines [5]: −5.8 log Molar
16 | CCOc1cc2c(cc1O)C(=O)CC1C2CCC2(C)C(O)CCC12 (stereo not drawn) [NSC 679431] | – | ✓ | 4.8 | ✓ | ✓ | Most Sensitive Cell Lines in Human Tumor Cell Panel Assay: Melanoma (Melanoma cell lines): ✓; Most Sensitive Cell Lines in Human Tumor Cell Panel Assay: Renal (Renal cell lines): ✓; T/C (volume of treated tumors over volume of control tumors) [3, 7]: 0.9
17 | C[C@]12CC[C@@H]3c4cc(OCC(F)(F)F)c(O)cc4C(=O)C[C@H]3[C@@H]1CC[C@@H]2O [NSC 681684] | – | – | 6 | – | – | inhibition in corneal pocket assay ([6]; 225 mg/kg): 36%; Tumor Panel: Average log IC50(Molar) against 8 human breast cancer cell lines [5]: −5.06 log Molar
18 | CC#Cc1cc2c(cc1O)CCC1C2CCC2(C)C(O)CCC12 (stereo not drawn) [NSC 682429] | – | ✓ | 2.2 | ✓ | ✓ | inhibition in corneal pocket assay ([6]; 300 mg/kg): 34%; T/C (volume of treated tumors over volume of control tumors) ([3]; 44 days at 225 mg/kg p.o.): 0.25; tumor growth inhibition, comparison in words (FIG. 4) ([3]; FIG. 4): most effective tumor inhibiting compound tested
19 | CCOc1cc2c(cc1O)C(O)C[C@@H]1[C@@H]2CC[C@]2(C)[C@@H](O)CC[C@@H]12 (stereo partly drawn) [NSC 683688] | – | ✓ | – | ✓ | ✓ | Most Sensitive Cell Lines in Human Tumor Cell Panel Assay: Melanoma (Melanoma cell lines): ✓; Most Sensitive Cell Lines in Human Tumor Cell Panel Assay: Renal (Renal cell lines): ✓; Tumor Panel: Average log IC50(Molar) against 8 human breast cancer cell lines [5]: −6.3 log Molar
